This note sets out measurements from patent US7491794B2, “Macrocyclic compounds as inhibitors of viral replication” (Intermune, Inc., priority 2003, dated 2009).

As a reminder, the EC50 is the concentration that produces a half-maximal response. Broadly, the IC50 is the midpoint of a concentration-inhibition curve.

Where two headings read alike, the source gives them in different places.

Experiment [1] relates to HCV sub-genomic replicon, GS4.3. The experiment in a line: Quantitation by ELISA of NPTII in the HCV sub-genomic replicon, GS4.3, Section C. It counts as cell-based. The conditions noted are these: GS4.3 cells, 72 h incubation, read-out: EC50. The source says:
Quantitation by ELISA of the selectable marker protein, Neomycin phosphotransferase II (NPTII) in the HCV Sub-Genomic Replicon, GS4.3
The HCV sub-genomic replicon (1377/NS3-3′, accession No. AJ242652), stably maintained in HuH-7 hepatoma cells, was created by Lohmann et al. Science 285: 110-113 (1999). The replicon-containing cell culture, designated GS4.3, was obtained from Dr. Christoph Seeger of the Institute for Cancer Research, Fox Chase Cancer Center, Philadelphia, Pa.
GS4.3 cells were maintained at 37° C., 5% CO2, in DMEM (Gibco 11965-092) supplemented with L-glutamine 200 mM (100×) (Gibco25030-081), non-essential amino acids (NEAA)(Biowhittaker 13-114E), heat-inactivated (HI) Fetal Bovine Serum(FBS)(Hyclone SH3007.03) and 750 μg/ml geneticin (G418)(Gibco 10131-035). Cells were sub-divided 1:3 or 4 every 2-3 days.
24 h prior to the assay, GS4.3 cells were collected, counted, and plated in 96-well plates (Costar 3585) at 7500 cells/well in 100 μl standard maintenance medium (above) and incubated in the conditions above. To initiate the assay, culture medium was removed, cells were washed once with PBS (Gibco 10010-023) and 90 μl Assay Medium (DMEM, L-glutamine, NEAA, 10% HI FBS, no G418) was added. Inhibitors were made as a 10× stock in Assay Medium, (3-fold dilutions from 10 μM to […] final concentration, final DMSO concentration 1%), 10 μl were added to duplicate wells, plates were rocked to mix, and incubated as above for 72 h.
An NPTII Elisa kit was obtained from AGDIA, Inc. (Compound direct ELISA test system for Neomycin Phosphotransferase II, PSP 73000/4800). Manufacturer's instructions were followed, with some modifications. 10×PEB-1 lysis buffer was made up to include 500 μM PMSF (Sigma P7626, 50 mM stock in isopropanol). After 72 h incubation, cells were washed once with PBS and 150 μl PEB-1 with PMSF was added per well. Plates were agitated vigorously for 15 minutes, room temperature, then frozen at −70° C. Plates were thawed, lysates were mixed thoroughly, and 100 μl were applied to an NPTII Elisa plate. A standard curve was made. Lysate from DMSO-treated control cells was pooled, serially diluted with PEB-1 with PMSF, and applied to duplicate wells of the ELISA plate, in a range of initial lysate amount of 150u1-2.5 ul. In addition, 100 μl buffer alone was applied in duplicate as a blank. Plates were sealed and gently agitated at room temperature for 2 h. Following capture incubation, the plates were washed 5×300 μl with PBS-T (0.5% Tween-20, PBS-T was supplied in the ELISA kit). For detection, a 1× dilution of enzyme conjugate diluent MRS-2 (5×) was made in PBS-T, into which 1:100 dilutions of enzyme conjugates A and B were added, as per instructions. Plates were resealed, and incubated with agitation, covered, room temperature, for 2 h. The washing was then repeated and 100 μl of room temperature TMB substrate was added. After approximately 30 minutes incubation (room temperature, agitation, covered), the reaction was stopped with 50 μl 3M sulfuric acid. Plates were read at 450 nm on a Molecular Devices Versamax plate reader.
Inhibitor effect was expressed as a percentage of DMSO-treated control signal, and inhibition curves were calculated using a 4-parameter equation: y=A+((B−A)/(1+((C/x)^D))), where C is half-maximal activity or EC50.
On the technique in general: In an ELISA, binding on a coated surface is turned into a signal by an enzyme label.

Experiment [2] concerns the target T1, NS3-NS4 protease (Hepatitis C virus genotype 1a, UniProt P27958).
T1 construct: Recombinant E. coli or Baculovirus full-length NS3 was diluted to 3.33 μM with assay buffer; made in house; host or cells: E. coli or baculovirus (BV) system
The experiment in a line: NS3-NS4 protease assay / NS3 inhibition assay, Section C. The conditions noted are these: read-out: NS3-NS4 IC50. In kind it is biochemical. The procedure: NS3 complex formation with NS4A-2.
Recombinant E. coli or Baculovirus full-length NS3 was diluted to 3.33 μM with assay buffer and transfered material to an eppendorf tube and place in water bath in 4° C. refrigerator. The appropriate amount of NS4A-2 to 8.3 mM in assay buffer was added to equal the volume of NS3 in step 2.1.1 (conversion factor −3.8 mg/272 μL assay buffer). The material was transferred to an eppendorf tube and place in water bath in 4° C. refrigerator.
After equilibration to 4° C., equal volumes of NS3 and NS4A-2 solutions were combined in an eppendorf tube, mix gently with a manual pipettor, and incubate mixture for 15 minutes in the 4° C. water bath. Final concentrations in the mixture are […] NS3, 4.15 mM NS4A-2 (2485-fold molar excess NS4A-2).
After 15 minutes at 4° C., the NS3/NS4A-2 eppendorf tube was removed and place it in a room temperature water bath for 10 minutes. NS3/NS4A-2 was alliquoted at appropriate volumes and store at −80° C. (E. coli NS3 run at 2 nM in assay, aliquot at 25 μL. BV NS3 run at 3 nM in assay, aliquot at 30 μL).
Step 2.2.5. Sample compounds were dissolved to 10 mM in DMSO then diluted to 2.5 mM (1:4) in DMSO.
Step 2.2.6. The E. coli. NS3/NS4A-2 was diluted to 4 nM NS3 (1:417.5 of […] stock−18 μL 1.67 μM stock+7497 μL assay buffer). The BV NS3/NS4A-2 was diluted to 6 nM NS3 (1:278.3 of 1.67 μM stock−24 μL 1.67 μM stock+6655 μL assay buffer).
Step 2.2.7. Using the manual multichannel pipettor, and being careful not to introduce bubbles into the plate, 50 μL assay buffer were added to wells A01-H01 of a black Costar 96-well polypropylene storage plate.
Step 2.2.8. Using the manual multichannel pipettor, and being careful not to introduce bubbles into the plate, 50 μL of diluted NS3/NS4A-2 from step 2.2.6 were added to wells A02-H12 of plate in step 2.2.7.
Step 2.2.9. Using the manual multichannel pipettor, and being careful not to introduce bubbles into the plate, 25 μL of the wells in drug dilution plate in step 2.2.5 were transferred to corresponding wells in assay plate in step 2.2.8. The tips on multichannel pipettor were changed for each row of compounds transferred.
Step 2.2.10. Using the manual multichannel pipettor, and being careful not to introduce bubbles into the plate, the contents of the wells from the assay plate in step 2.2.9 were mixed by aspirating and dispensing 35 μL of the 75 μL in each well five times. The tips on the multichannel pipettor were changed for each row of wells mixed.
Step 2.2.11. The plate was covered with a polystyrene plate lid, and the plate from step 2.2.10 containing NS3 protease and sample compounds was pre-incubated 10 minutes at room temperature.
While the plate from step 2.2.11 was pre-incubating, the RETS1 substrate was diluted in a 15 mL polypropylene centrifuge tube. The RETS1 substrate was diluted to 8 μM (1:80.75 of 646 μM stock−65 μL 646 μM stock+5184 μL assay buffer).
After the plate in step 2.2.11 was done pre-incubating, and using the manual multichannel, 25 μL of substrate were added to all wells on the plate. The contents of the wells of plate were quickly mixed, as in step 2.2.10, but mixing 65 μL of the 100 μL in the wells.
The plate was read in kinetic mode on the Molecular Devices SpectraMax Gemini XS plate reader. Reader settings: Read time: 30 minutes, Interval: 36 seconds, Reads: 51, Excitation λ: 335 nm, Emission λ: 495 nm, cutoff: 475 nm, Automix: off, Calibrate: once, PMT: high, Reads/well: 6, Vmax pts: 21 or 28/51 depending on length of linearity of reaction.
IC50s were determined using a four parameter curve fit equation, and converted to Ki's using the following Km's:
where Ki=IC50/(1+[S]/Km))

Experiment [3] has as its target T1, NS3-NS4 protease. The experiment in a line: NS3-NS4 protease assay / NS3 inhibition assay, Section D. In kind it is biochemical.

T1 sequence (P27958 1027-1657): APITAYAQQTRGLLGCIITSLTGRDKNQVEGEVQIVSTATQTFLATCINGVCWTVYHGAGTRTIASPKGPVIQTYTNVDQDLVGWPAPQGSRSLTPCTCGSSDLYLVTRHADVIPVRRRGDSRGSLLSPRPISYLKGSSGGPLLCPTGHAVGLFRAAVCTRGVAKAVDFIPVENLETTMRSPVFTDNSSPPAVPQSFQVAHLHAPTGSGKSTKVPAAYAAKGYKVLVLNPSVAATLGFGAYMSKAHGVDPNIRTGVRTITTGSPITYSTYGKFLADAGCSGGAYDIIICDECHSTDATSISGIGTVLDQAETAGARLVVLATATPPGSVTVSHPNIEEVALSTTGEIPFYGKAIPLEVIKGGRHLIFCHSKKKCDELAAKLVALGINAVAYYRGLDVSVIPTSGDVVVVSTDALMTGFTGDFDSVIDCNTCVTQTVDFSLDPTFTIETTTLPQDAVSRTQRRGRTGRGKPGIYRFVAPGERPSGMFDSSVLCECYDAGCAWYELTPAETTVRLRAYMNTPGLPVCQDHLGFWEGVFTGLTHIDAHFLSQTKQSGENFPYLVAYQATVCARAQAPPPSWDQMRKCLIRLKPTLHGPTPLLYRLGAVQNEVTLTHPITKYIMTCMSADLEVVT

For the compound `CN(C)S(=O)(=O)NC(=O)[C@@]12C[C@H]1C=CCCCCC[C@H](NC(=O)OC(C)(C)C)C(=O)N1C[C@H](OC(=O)N3Cc4ccccc4C3)C[C@H]1C(=O)N2` [Compound 101, (1S,4R,6S,14S,18R)-1,3-Dihydro-isoindole-2-carboxylic acid 14-tert-butoxycarbonylamino-4-(N,N-dimethylsulfonyl-aminocarbonyl)-2,15-dioxo-3,16-diaza-tricyclo[14.3.0.0^4,6]nonadec-7-en-18-yl ester], in experiment [1], the EC50 is < 100 nM. Also, the 50% inhibitory concentration (IC50) in experiment [2] is < 100 nM.

In the case of `CC(C)(C)OC(=O)N[C@H]1CCCCC/C=C\[C@@H]2C[C@@]2(C(=O)NS(=O)(=O)NC2CC2)NC(=O)[C@@H]2C[C@@H](OC(=O)N3Cc4ccccc4C3)CN2C1=O` [Compound 102], the EC50 in experiment [1] (Hepatitis C virus) was < 100 nM. For the same compound, in experiment [2], the half-inhibitory concentration (IC50) is < 100 nM.

With `CC(C)(C)OC(=O)N[C@H]1CCCCC/C=C\[C@@H]2C[C@@]2(C(=O)NS(=O)(=O)Nc2nccs2)NC(=O)[C@@H]2C[C@@H](OC(=O)N3Cc4ccccc4C3)CN2C1=O` [Compound 105, (1S,4R,6S,14S,18R)-1,3-Dihydro-isoindole-2-carboxylic acid 14-tert-butoxycarbonylamino-4-(thiazol-2-ylaminosulfonylaminocarbonyl)-2,15-dioxo-3,16-diaza-tricyclo[14.3.0.0^4,6]nonadec-7-en-18-yl ester], the 50% inhibitory concentration (IC50) in experiment [2] is < 100 nM.

With `CC(C)(C)OC(=O)N[C@H]1CCCCC/C=C\[C@@H]2C[C@@]2(C(=O)NS(=O)(=O)N2CCOCC2)NC(=O)[C@@H]2C[C@@H](OC(=O)N3CCc4ccccc4C3CN3CCCCC3)CN2C1=O` (stereo partly drawn) [Compound 110, (1S,4R,6S,14S,18R)-1-Piperidin-1-ylmethyl-3,4-dihydro-1H-isoquinoline-2-carboxylic acid 14-tert-butoxycarbonylamino-2,15-dioxo-4-(morpholino-sulfonylaminocarbonyl)-3,16-diaza-tricyclo[14.3.0.0^4,6]nonadec-7-en-18-yl ester], the half-maximal inhibitory concentration (IC50) in experiment [2] is < 1000 nM.

As to `CC(C)(C)OC(=O)N[C@H]1CCCCC/C=C\[C@@H]2C[C@@]2(C(=O)NS(=O)(=O)N2CCCC2)NC(=O)C2C[C@@H](OC(=O)N3CCc4ccccc4C3CN3CCOCC3)CN2C1=O` (stereo partly drawn) [Compound 111, (1S,4R,6S,14S,18R)-1-Morpholine-4-ylmethyl-3,4-dihydro-1H-isoquinoline-2-carboxylic acid 14-tert-butoxycarbonylamino-2,15-dioxo-4-(pyrrolidine-1-sulfonylaminocarbonyl)-3,16-diaza-tricyclo[14.3.0.0^4,6]nonadec-7-en-18-yl ester], the IC50 in experiment [2] is < 100 nM.

As to `CC(C)(C)OC(=O)N[C@H]1CCCCC/C=C\[C@@H]2C[C@@]2(C(=O)NS(=O)(=O)N2CCCC2)NC(=O)C2C[C@@H](OC(=O)NC(CN3CCOCC3)c3ccccc3)CN2C1=O` (stereo partly drawn) [Compound 112, (1S,4R,6S,14S,18R)-(2-Morpholin-4-yl-1-phenyl-ethyl)-carbamic acid 14-tert-butoxycarbonylamino-2,15-dioxo-4-(pyrrolidine-1-sulfonylaminocarbonyl)-3,16-diaza-tricyclo[14.3.0.0^4,6]nonadec-7-en-18-yl ester], the IC50 in experiment [2] is < 100 nM.

Take `CC(C)(C)OC(=O)N[C@H]1CCCCC/C=C\[C@@H]2C[C@@]2(C(=O)NS(=O)(=O)N2CCNCC2)NC(=O)[C@@H]2C[C@@H](OC(=O)N3Cc4ccccc4C3)CN2C1=O` [Compound 120, (1S,4R,6S,14S,18R)-1,3-Dihydro-isoindole-2-carboxylic acid 14-tert-butoxycarbonylamino-4-(piperazine-1-sulfonyl-aminocarbonyl)-2,15-dioxo-3,16-diaza-tricyclo[14.3.0.0^4,6]nonadec-7-en-18-yl ester]: the IC50 in experiment [2] is < 100 nM.

As for `CC(C)(C)OC(=O)N[C@H]1CCCCC/C=C\[C@@H]2C[C@@]2(C(=O)NS(=O)(=O)NC2(C#N)CC2)NC(=O)[C@@H]2C[C@@H](OC(=O)N3Cc4ccccc4C3)CN2C1=O` [Compound 123, (1S,4R,6S,14S,18R)-1,3-Dihydro-isoindole-2-carboxylic acid 14-tert-butoxycarbonylamino-4-(N-(1-cyanocyclopropyl)aminosulfonyl-aminocarbonyl)-2,15-dioxo-3,16-diaza-tricyclo[14.3.0.0^4,6]nonadec-7-en-18-yl ester], in experiment [2], the IC50 is < 100 nM.

With `COc1ccc(C(=O)N[C@@H]2C[C@H]3C(=O)N[C@]4(C(=O)O)C[C@H]4/C=C\CCCCC[C@H](NC(=O)OC(C)(C)C)C(=O)N3C2)cc1C(F)(F)F` [Example 69], the 50% inhibitory concentration (IC50) in experiment [3] is < 10000 nM.
